The text below walks through data of US10633353B2, “Polymerizable compound, composition, polymer, optically anisotropic body, liquid crystal display element, and organic EL display” (DIC Corporation, priority 2014, dated 2020).

The nature of the first data set: Optical stability of the optical film (xenon-lamp irradiation). In kind it is physicochemical. The conditions noted are these: summary in words. On the procedure:
The coating liquid was applied to a glass substrate by spin coating, the glass substrate including a rubbed polyimide layer deposited thereon. The glass substrate was then placed on a hot plate, dried at 80° C. for 1 minute, and further dried at 140° C. for another 1 minute. Subsequently, irradiation with ultraviolet radiation at 1000 mJ/cm and 140° C. was performed.
The optical film was irradiated with light at 50 mW/cm^2, 25° C., and 100 J using a xenon-lamp irradiation testing machine (SUNTEST XLS, produced by Atlas). The optical stability of the optical film was evaluated on a scale of A to E below.
A: No change in the film was visually confirmed. An inspection of the optical film with a polarized light microscope also confirmed no defects.
B: Although no change in the film was visually confirmed, an inspection of the optical film with a polarized light microscope confirmed slight orientation defects.
C: Slight yellowing of the film was visually confirmed.
D: Yellowing of the film was visually confirmed. In addition, the optical film was partly detached from the glass substrate.
E: Yellowing of the entire film was visually confirmed. In addition, the optical film was detached from the glass substrate.
In the case of `C=CC(=O)OCCCCCCOc1ccc(OC(=O)C2CCC(C(=O)OCCc3ccc(OC(=O)C4CCC(C(=O)Oc5ccc(OCCCCCCOC(=O)C=C)cc5)CC4)c(/C=N/N(CCCCCC)c4nc5ccccc5s4)c3)CC2)cc1` (stereo not drawn) [1-cmn-82], the optical stability result is recorded as “high”.

A short description of a further data set: Preservation stability of the coating liquid. In kind it is physicochemical. The conditions noted are these: coating liquid stored for 2 months shielded from light at 0° C.; appearance and GPC. Put shortly: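 Coating liquid stored 2 months at 0° C shielded from light, then graded A–E. Grades rest on visual appearance, change in composition by GPC, and weight ratio of insoluble components to total solids.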
With `C=CC(=O)OCCCCCCOc1ccc(C(=O)Oc2ccc(OCCCCCCOC(=O)C=C)cc2/C=N/Nc2nc3ccccc3s2)cc1` [1-e-70], the Preservation stability result is listed as “A (No visual change in the appearance of the coating liquid was confirmed. A GPC analysis of the coating liquid confirmed that the change in the composition of the coating liquid was 1% or less.)”.

Consider `C=CC(=O)OCCCCCCOc1ccc(OC(=O)C2CCC(C(=O)OCCc3ccc(OC(=O)C4CCC(C(=O)Oc5ccc(OCCCCCCOC(=O)C=C)cc5)CC4)c(/C=N/N(CCCCCC)c4nc5ccccc5s4)c3)CC2)cc1` (stereo not drawn) [1-cmn-82], for which the Preservation stability result is reported as “A (No visual change in the appearance of the coating liquid was confirmed. A GPC analysis of the coating liquid confirmed that the change in the composition of the coating liquid was 1% or less.)”.

Consider `C=CC(=O)OCCCCOC(=O)/C=C/c1ccc(CCC(=O)Oc2ccc(OC(=O)CCc3ccc(/C=C/C(=O)OCCCCOC(=O)C=C)cc3)c(/C=N/Nc3nc4ccccc4s3)c2)cc1` [1-cj-59], for which the Preservation stability result is listed as “A (No visual change in the appearance of the coating liquid was confirmed. A GPC analysis of the coating liquid confirmed that the change in the composition of the coating liquid was 1% or less.)”.

As to `C=CC(=O)OCCCOc1ccc(C(=O)Oc2ccc3cc(C(=O)Oc4ccc(OCCCOC(=O)C=C)cc4/C=N/Nc4nc5ccccc5s4)ccc3c2)cc1` [1-eh-74], the Preservation stability entry is “A (No visual change in the appearance of the coating liquid was confirmed. A GPC analysis of the coating liquid confirmed that the change in the composition of the coating liquid was 1% or less.)”.

As to `C=CC(=O)OCCCCCCOC(=O)/C=C/c1ccc(C(=O)Oc2ccc(OC(=O)c3ccc(/C=C/C(=O)OCCCCCCOC(=O)C=C)cc3)c(/C=N/Nc3nc4ccccc4s3)c2)cc1` [1-j-62], the Preservation stability entry is given as “B (No visual change in the appearance of the coating liquid was confirmed. A GPC analysis of the coating liquid confirmed that the change in the composition of the coating liquid was 2% or less.)”.

`C=C(C)C(=O)OCCCCCCOc1ccc(C(=O)OCCc2ccc(OC(=O)c3ccc(OCCCCCCOC(=O)C(=C)C)cc3)c(/C=N/Nc3nc4ccccc4s3)c2)cc1` [1-c-8]: the Preservation stability result is on record as “A (No visual change in the appearance of the coating liquid was confirmed. A GPC analysis of the coating liquid confirmed that the change in the composition of the coating liquid was 1% or less.)”.

Take `C=C(C)C(=O)OCCCOc1ccc(/C=C/C(=O)Oc2ccc(OC(=O)/C=C/c3ccc(OCCCOC(=O)C(=C)C)cc3)c(/C=N/Nc3nc4ccccc4s3)c2)cc1` [1-c-48]: the Preservation stability result was “B (No visual change in the appearance of the coating liquid was confirmed. A GPC analysis of the coating liquid confirmed that the change in the composition of the coating liquid was 2% or less.)”.

`C=CC(=O)OCCCCOC(=O)C1CCC(C(=O)OC2CCC(C(=O)Oc3ccc(OC(=O)C4CCC(OC(=O)C5CCC(C(=O)OCCCCOC(=O)C=C)CC5)CC4)c(/C=N/N(C)c4nc5ccccc5s4)c3)CC2)CC1` (stereo not drawn) [1-f-103]: the Preservation stability entry is “A (No visual change in the appearance of the coating liquid was confirmed. A GPC analysis of the coating liquid confirmed that the change in the composition of the coating liquid was 1% or less.)”.

In the case of `C=CC(=O)OCCCCOC(=O)C1CCC(C(=O)OC2CCC(C(=O)Oc3ccc(OC(=O)C4CCC(OC(=O)C5CCC(C(=O)OCCCCOC(=O)C=C)CC5)CC4)c(/C=N/Nc4nc5ccccc5s4)c3)CC2)CC1` (stereo not drawn) [1-f-20], the Preservation stability result is on record as “A (No visual change in the appearance of the coating liquid was confirmed. A GPC analysis of the coating liquid confirmed that the change in the composition of the coating liquid was 1% or less.)”.

For the compound `C=CC(=O)OCCCCOC(=O)C1CCC(C(=O)OC2CCC(C(=O)Oc3ccc(OC(=O)C4CCC(OC(=O)C5CCC(C(=O)OCCCCOC(=O)C=C)CC5)CC4)c(/C=N/N(CCCCC)c4nc5ccccc5s4)c3)CC2)CC1` (stereo not drawn) [1-f-98], the Preservation stability entry is reported as “A (No visual change in the appearance of the coating liquid was confirmed. A GPC analysis of the coating liquid confirmed that the change in the composition of the coating liquid was 1% or less.)”.

Consider `C=CC(=O)OCCCOc1ccc(OC(=O)C2CCC(COc3ccc(OCC4CCC(C(=O)Oc5ccc(OCCCOC(=O)C=C)cc5)CC4)c(/C=N/N(CCOCCOC)c4nc5ccccc5s4)c3)CC2)cc1` (stereo not drawn) [1-cmn-92], for which the Preservation stability result is “A (No visual change in the appearance of the coating liquid was confirmed. A GPC analysis of the coating liquid confirmed that the change in the composition of the coating liquid was 1% or less.)”.

Take `C=CC(=O)OCCCCOC(=O)C1CCC(C(=O)OC2CCC(C(=O)Oc3ccc(OC(=O)C4CCC(OC(=O)C5CCC(C(=O)OCCCCOC(=O)C=C)CC5)CC4)c(/C=N/N(CCC)c4nc5ccccc5s4)c3)CC2)CC1` (stereo not drawn) [1-f-100]: the Preservation stability entry is reported as “A (No visual change in the appearance of the coating liquid was confirmed. A GPC analysis of the coating liquid confirmed that the change in the composition of the coating liquid was 1% or less.)”.

Take `C=CC(=O)OCCCCOc1ccc(/C=C/C(=O)Oc2ccc(OC(=O)/C=C/c3ccc(OCCCCOC(=O)C=C)cc3)c(/C=N/Nc3nc4ccccc4s3)c2)cc1` [1-c-45]: the Preservation stability result is reported as “B (No visual change in the appearance of the coating liquid was confirmed. A GPC analysis of the coating liquid confirmed that the change in the composition of the coating liquid was 2% or less.)”.

The same data set, now with this note: summary in words.
Take `C=CC(=O)OCCCCCCOc1ccc(OC(=O)C2CCC(C(=O)OCCc3ccc(OC(=O)C4CCC(C(=O)Oc5ccc(OCCCCCCOC(=O)C=C)cc5)CC4)c(/C=N/N(CCCCCC)c4nc5ccccc5s4)c3)CC2)cc1` (stereo not drawn) [1-cmn-82]: the Preservation stability entry was “high”.
